IC50 data for 33 molecules are collected here from patent US12336981B2, “Compounds and compositions for the inhibition of NAMPT” (Valo Health, Inc., priority 2010, dated 2025).

One test deals with A2780 cells. Briefly: In-vitro cell proliferation assay (SRB), A2780 cells. The format is cell-based. The conditions noted are these: Homo sapiens, A2780, 72 h, A2780 cells, 72 hours, read-out: A2780 IC50. Put shortly:
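Viable cells measured by SRB staining after 6% TCA fixation, absorbance 570 nm. Media-only background subtracted; % inhibition derived at two compound concentrations.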

A further test deals with T1, NAMPT (Homo sapiens, UniProt P43490).
T1 construct: His tag; host or cells: E. coli
T1 sequence (P43490 whole entry): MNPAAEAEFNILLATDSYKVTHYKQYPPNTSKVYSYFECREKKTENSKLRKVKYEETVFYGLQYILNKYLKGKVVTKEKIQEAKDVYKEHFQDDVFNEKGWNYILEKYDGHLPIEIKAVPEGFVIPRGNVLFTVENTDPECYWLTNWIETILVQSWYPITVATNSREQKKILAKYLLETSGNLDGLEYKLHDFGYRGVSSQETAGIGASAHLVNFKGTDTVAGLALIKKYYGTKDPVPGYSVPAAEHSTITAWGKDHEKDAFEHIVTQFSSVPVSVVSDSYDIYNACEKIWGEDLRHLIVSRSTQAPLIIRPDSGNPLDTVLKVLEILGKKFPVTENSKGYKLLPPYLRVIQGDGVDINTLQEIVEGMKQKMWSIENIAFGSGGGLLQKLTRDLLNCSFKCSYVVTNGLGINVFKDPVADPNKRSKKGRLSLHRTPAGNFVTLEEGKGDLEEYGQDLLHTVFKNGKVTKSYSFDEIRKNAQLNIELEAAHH
The experiment in a line: Biochemical inhibition assay: NAMPT enzymatic reaction, NMN quantified by mass spectrometry. Particulars: read-out: Biochem IC50. Put shortly:
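Inhibition of E. coli-expressed His-tagged human NAMPT, measured as NMN formation by mass spectrometry after a 30 min room-temperature reaction containing 1 μM NAM, 100 μM PRPP and 2.5 mM ATP.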

The term IC50 denotes the point on the concentration scale where inhibition reaches its midpoint.

Where two headings read alike, the source gives them in different places.

Consider `Cn1cc2cc(S(=O)(=O)c3ccc(CNC(=O)c4cnc5nccn5c4)cc3)ccc2n1` [N-{[4-(2-methyl-2H-indazole-5-sulfonyl)phenyl]methyl}imidazo[1,2-a]pyrimidine-6-carboxamide], for which the IC50 stood at 8.2 nM in the test on A2780 cells (SRB) and 1.2 nM on NAMPT (NAMPT enzymatic assay).
For `Cn1cc2cc(S(=O)(=O)c3ccc(CNC(=O)c4cc5ccncc5s4)cc3)ccc2n1` [N-{[4-(2-methyl-2H-indazole-5-sulfonyl)phenyl]methyl}thieno[2,3-c]pyridine-2-carboxamide], in that order: 3.3 nM and 5.5 nM.
For `Cn1cc2ccc(S(=O)(=O)c3ccc(CNC(=O)c4cc5ccncc5o4)cc3)cc2n1` [N-{[4-(2-methyl-2H-indazole-6-sulfonyl)phenyl]methyl}furo[2,3-c]pyridine-2-carboxamide], in that order: 2.8 nM and 3.4 nM.
For `Cn1cc2ccc(S(=O)(=O)c3ccc(CNC(=O)c4ccc5nccn5c4)cc3)cc2n1` [N-{[4-(2-methyl-2H-indazole-6-sulfonyl)phenyl]methyl}imidazo[1,2-a]pyridine-6-carboxamide], in that order: 1.7 nM and 1.9 nM.
Turning to `Cn1cc2ccc(S(=O)(=O)c3ccc(CNC(=O)c4cnc5nccn5c4)cc3)cc2n1` [N-{[4-(2-methyl-2H-indazole-6-sulfonyl)phenyl]methyl}imidazo[1,2-a]pyrimidine-6-carboxamide], the IC50 with A2780 cells (SRB) is 6.1 nM; at NAMPT (NAMPT enzymatic assay) it was 1.2 nM.
For `Cn1cc2ccc(S(=O)(=O)c3ccc(CNC(=O)c4cc5ccncc5s4)cc3)cc2n1` [N-{[4-(2-methyl-2H-indazole-6-sulfonyl)phenyl]methyl}thieno[2,3-c]pyridine-2-carboxamide], in that order: 1.5 nM and 1.4 nM.
For `Cc1ncccc1S(=O)(=O)c1ccc(CNC(=O)c2cnc3[nH]ncc3c2)cc1` [N-{[4-(2-methylpyridine-3-sulfonyl)phenyl]methyl}-1H-pyrazolo[3,4-b]pyridine-5-carboxamide], in that order: 136 nM and 105 nM.
For `Cc1ncccc1S(=O)(=O)c1ccc(CNC(=O)c2cc3cnccc3[nH]2)cc1` [N-{[4-(2-methylpyridine-3-sulfonyl)phenyl]methyl}-1H-pyrrolo[3,2-c]pyridine-2-carboxamide], in that order: 24 nM and 180 nM.
With `Cc1ncccc1S(=O)(=O)c1ccc(CNC(=O)c2cnc3nccn3c2)cc1` [N-{[4-(2-methylpyridine-3-sulfonyl)phenyl]methyl}imidazo[1,2-a]pyrimidine-6-carboxamide], the IC50 with A2780 cells (SRB) is 100 to 1000 nM; at NAMPT (NAMPT enzymatic assay), 20.8 nM.
For `Cc1ncccc1S(=O)(=O)c1ccc(CNC(=O)c2cc3ccncc3s2)cc1` [N-{[4-(2-methylpyridine-3-sulfonyl)phenyl]methyl}thieno[2,3-c]pyridine-2-carboxamide], in that order: 11.9 nM and 15.4 nM.
For `O=C(NCc1ccc(S(=O)(=O)c2cccc3c2OCO3)cc1)c1cnc2[nH]ncc2c1` [N-{[4-(2H-1,3-benzodioxole-4-sulfonyl)phenyl]methyl}-1H-pyrazolo[3,4-b]pyridine-5-carboxamide], the 50% inhibitory concentration (IC50) was 88.4 nM in the test with A2780 cells (SRB) and 47 nM at NAMPT (NAMPT enzymatic assay).
For `O=C(NCc1ccc(S(=O)(=O)c2cccc3c2OCO3)cc1)c1cc2cnccc2[nH]1` [N-{[4-(2H-1,3-benzodioxole-4-sulfonyl)phenyl]methyl}-1H-pyrrolo[3,2-c]pyridine-2-carboxamide], in that order: 11.8 nM and 20.5 nM.
For `O=C(NCc1ccc(S(=O)(=O)c2cccc3c2OCO3)cc1)c1cc2ccncc2o1` [N-{[4-(2H-1,3-benzodioxole-4-sulfonyl)phenyl]methyl}furo[2,3-c]pyridine-2-carboxamide], in that order: 26.6 nM and 25.8 nM.
On to `O=C(NCc1ccc(S(=O)(=O)c2cccc3c2OCO3)cc1)c1ccc2nccn2c1` [N-{[4-(2H-1,3-benzodioxole-4-sulfonyl)phenyl]methyl}imidazo[1,2-a]pyridine-6-carboxamide], for which the values for the IC50 with A2780 cells (SRB) and on NAMPT (NAMPT enzymatic assay) were 13 nM and 7.1 nM, respectively.
In the same order, the values of `O=C(NCc1ccc(S(=O)(=O)c2cccc3c2OCO3)cc1)c1cnc2nccn2c1` [N-{[4-(2H-1,3-benzodioxole-4-sulfonyl)phenyl]methyl}imidazo[1,2-a]pyrimidine-6-carboxamide] are 93.3 nM and 2.9 nM.
In the same order, the values of `O=C(NCc1ccc(S(=O)(=O)c2cccc3c2OCO3)cc1)c1cc2ccncc2s1` [N-{[4-(2H-1,3-benzodioxole-4-sulfonyl)phenyl]methyl}thieno[2,3-c]pyridine-2-carboxamide] are 7.2 nM and 3.3 nM.
For `O=C(NCc1ccc(S(=O)(=O)c2ccc3c(c2)OCO3)cc1)c1cnc2[nH]ncc2c1` [N-{[4-(2H-1,3-benzodioxole-5-sulfonyl)phenyl]methyl}-1H-pyrazolo[3,4-b]pyridine-5-carboxamide], in that order: 7.4 nM and 48.2 nM.
Consider `O=C(NCc1ccc(S(=O)(=O)c2ccc3c(c2)OCO3)cc1)c1cc2cnccc2[nH]1` [N-{[4-(2H-1,3-benzodioxole-5-sulfonyl)phenyl]methyl}-1H-pyrrolo[3,2-c]pyridine-2-carboxamide], for which the concentration for half-maximal inhibition (IC50) is 7 nM in the test on A2780 cells (SRB assay) and 8 nM at NAMPT (NAMPT enzymatic reaction).
In the case of `O=C(NCc1ccc(S(=O)(=O)c2ccc3c(c2)OCO3)cc1)c1cc2ccncc2o1` [N-{[4-(2H-1,3-benzodioxole-5-sulfonyl)phenyl]methyl}furo[2,3-c]pyridine-2-carboxamide], the IC50 worked out at 8.7 nM in the test on A2780 cells (SRB) and 5.3 nM at NAMPT (NAMPT enzymatic assay).
In the same order, the values of `O=C(NCc1ccc(S(=O)(=O)c2ccc3c(c2)OCO3)cc1)c1ccc2nccn2c1` [N-{[4-(2H-1,3-benzodioxole-5-sulfonyl)phenyl]methyl}imidazo[1,2-a]pyridine-6-carboxamide] are 5.33 nM and 10.7 nM.
As for `O=C(NCc1ccc(S(=O)(=O)c2ccc3c(c2)OCO3)cc1)c1cnc2nccn2c1` [N-{[4-(2H-1,3-benzodioxole-5-sulfonyl)phenyl]methyl}imidazo[1,2-a]pyrimidine-6-carboxamide], the concentration for half-maximal inhibition (IC50) in the test on A2780 cells (SRB) stood at 11.7 nM; on NAMPT (NAMPT enzymatic assay), 3 nM.
For `O=C(NCc1ccc(S(=O)(=O)c2ccc3c(c2)OCO3)cc1)c1cc2ccncc2s1` [N-{[4-(2H-1,3-benzodioxole-5-sulfonyl)phenyl]methyl}thieno[2,3-c]pyridine-2-carboxamide], the concentration for half-maximal inhibition (IC50) in the test with A2780 cells (SRB assay) turned out to be 2.5 nM; on NAMPT (NAMPT enzymatic reaction) it was 3 nM.
Regarding `Cc1ccnc(S(=O)(=O)c2ccc(CNC(=O)c3cc4ccncc4o3)cc2)c1` [N-{[4-(4-methylpyridine-2-sulfonyl)phenyl]methyl}furo[2,3-c]pyridine-2-carboxamide], the IC50 in the test with A2780 cells (SRB) was 11.4 nM; at NAMPT (NAMPT enzymatic assay) it was 19.2 nM.
In the same order, the values of `Cc1ccncc1S(=O)(=O)c1ccc(CNC(=O)c2cnc3[nH]ncc3c2)cc1` [N-{[4-(4-methylpyridine-3-sulfonyl)phenyl]methyl}-1H-pyrazolo[3,4-b]pyridine-5-carboxamide] are 271 nM and 100 to 1000 nM.
For `Cc1ccncc1S(=O)(=O)c1ccc(CNC(=O)c2cc3cnccc3[nH]2)cc1` [N-{[4-(4-methylpyridine-3-sulfonyl)phenyl]methyl}-1H-pyrrolo[3,2-c]pyridine-2-carboxamide], in that order: 25.8 nM and 260 nM.
As for `Cc1ccncc1S(=O)(=O)c1ccc(CNC(=O)c2cc3ccncc3o2)cc1` [N-{[4-(4-methylpyridine-3-sulfonyl)phenyl]methyl}furo[2,3-c]pyridine-2-carboxamide], the half-inhibitory concentration (IC50) came to 62 nM in the test with A2780 cells (SRB) and 25.2 nM on NAMPT (NAMPT enzymatic assay).
For `Cc1ccncc1S(=O)(=O)c1ccc(CNC(=O)c2ccc3nccn3c2)cc1` [N-{[4-(4-methylpyridine-3-sulfonyl)phenyl]methyl}imidazo[1,2-a]pyridine-6-carboxamide], the figures for the half-maximal inhibitory concentration (IC50) in the test with A2780 cells (SRB) and on NAMPT (NAMPT enzymatic assay) were 65.8 nM and 66.5 nM, respectively.
In the same order, the values of `Cc1ccncc1S(=O)(=O)c1ccc(CNC(=O)c2cnc3nccn3c2)cc1` [N-{[4-(4-methylpyridine-3-sulfonyl)phenyl]methyl}imidazo[1,2-a]pyrimidine-6-carboxamide] are 100 to 1000 nM and 19.1 nM.
`Cc1ccncc1S(=O)(=O)c1ccc(CNC(=O)c2cc3ccncc3s2)cc1` [N-{[4-(4-methylpyridine-3-sulfonyl)phenyl]methyl}thieno[2,3-c]pyridine-2-carboxamide]: the IC50 was determined as 22.5 nM in the test with A2780 cells (SRB) and 29.2 nM at NAMPT (NAMPT enzymatic assay).
In the same order, the values of `Cc1csc(S(=O)(=O)c2ccc(CNC(=O)c3ccc4nccn4c3)cc2)c1` [N-{[4-(4-methylthiophene-2-sulfonyl)phenyl]methyl}imidazo[1,2-a]pyridine-6-carboxamide] are 12.5 nM and 12.4 nM.
In the same order, the values of `Cc1cc(Cl)cnc1S(=O)(=O)c1ccc(CNC(=O)c2cnc3[nH]ncc3c2)cc1` [N-{[4-(5-chloro-3-methylpyridine-2-sulfonyl)phenyl]methyl}-1H-pyrazolo[3,4-b]pyridine-5-carboxamide] are 75.3 nM and 62.5 nM.
Turning to `Cc1cc(Cl)cnc1S(=O)(=O)c1ccc(CNC(=O)c2cc3ccncc3o2)cc1` [N-{[4-(5-chloro-3-methylpyridine-2-sulfonyl)phenyl]methyl}furo[2,3-c]pyridine-2-carboxamide], the figures for the IC50 with A2780 cells (SRB) and at NAMPT (NAMPT enzymatic assay) were 16.5 nM and 9.9 nM, respectively.
For `Cc1cc(Cl)cnc1S(=O)(=O)c1ccc(CNC(=O)c2ccc3nccn3c2)cc1` [N-{[4-(5-chloro-3-methylpyridine-2-sulfonyl)phenyl]methyl}imidazo[1,2-a]pyridine-6-carboxamide], in that order: 8 nM and 18.8 nM.
